Converted amounts (≈) assume the structure as drawn. Like-named read-outs stand apart in the source and are kept apart here.
Key:
[1] = set-up: method as in PMID 29751694; conditions: cited from earlier work
physchem = assay type: physicochemical
Protocol: A phase solubility diagram was used to estimate the stability constant (K) of the tacrolimus/HPβCD inclusion complex. The solubility measurements were carried out following the previous work of our research group, described by Anguiano-Igea et al.. This protocol was adjusted to the Higuchi and Connors phase solubility model. A solubility study was carried out by adding an excess amount of the tacrolimus powder to MilliQ® aqueous solutions containing increasing concentrations of HPβCD (from 0 to 400 mg/mL). The vials containing these suspensions were then shaken in a VWR incubated mini-shaker (VWR International, Radnor, PA, USA) at 25 °C and 250 rpm for 7 days until reaching an equilibrium. […]
Tacrolimus concentration was determined for each sample using an HPLC system (Agilent 1260 series; Agilent Technologies®, Santa Clara, CA, USA) equipped with a Diode Array Detector HS, a solvent delivery quaternary pump system, 400 bar maximum pressure and an autosampler. […] A 210-nm wavelength was employed for the tacrolimus quantification. […]
These constants values were calculated using the following Equation (1):S = S0 +(K1:1·S0 + K1:1·K1:2·S0·[HPβCD])·[HPβCD],(1) where S is the total solubility, S0 is the free drug solubility and K1:1 and K1:2 are the stability constants of the complex tacrolimus/HPβCD. […]

[2] = NMR saturation transfer difference (STD) study of tacrolimus/HPβCD binding; conditions: D2O, read-out: Kd of tacrolimus/HPβCD binding equilibrium
Protocol: NMR experiments were conducted at two different temperature conditions, 278 and 298 K, on a Bruker NEO 17.6 T spectrometer (proton resonance 750 MHz) (Billerica, MA, USA), equipped with a ^1H/^13C/^15N triple resonance PA-TXI probe with a deuterium lock channel and a shielded Pulse Field Gradient (PFG) z-gradient. The spectrometer control software was TopSpin 4.0 (Billerica, MA, USA, 2020). The reported chemical shifts are referenced to the lock deuterium solvent. Spectra were processed and analyzed using Mestrenova v14.0 software (Mestrelab Research S.L., Santiago de Compostela, Spain, 2019).
One-dimensional saturation transfer difference ^1H spectra (STD) were measured. The experiment consisted of a selective saturation pulse train, a WET selective solvent suppression module and a 90-degree hard-pulse followed by fid (free induction decay) acquisition. The selective saturation consisted of a train of soft Gaussian-shaped pulses of 50-ms duration with a 1-ms interpulse delay. The selective saturation was applied during 2 s at a specific frequency of the ^1H spectrum, covering a region of the spectrum of ± 125 Hz around the chosen frequency (i.e., ± 0.17 ppm in a 750 spectrometer). The STD^off saturation was applied at 20 ppm. […] The STD^on and STD^off scans were measured in alternate scans and subtracted by the phase cycling, providing the subtracted STD^off-on spectra. […]

[3] = set-up: method as in PMID 32599134, PMID 24015381; conditions: cited from earlier work
T cell proliferation = test system: T cell proliferation; set-up: method as in PMID 22511024; conditions: cited from earlier work

K1:2 stability constant of tacrolimus/HPβCD complex (physchem) [M⁻¹] | solubility at 7 days (physchem) [µg/mL] | Kd ([2]; 278 K, inferred from STD response) [mM] | Kd ([2]; 298 K, inferred from absence of STD response) [mM] | SMILES | surface tension in solution [1] | water solubility [3] [µg/mL] | immunosuppressive activity, times more potent than cyclosporine A (T cell proliferation) [times]
 |  |  |  | CC(O)COC[C@H]1O[C@@H]2O[C@H]3[C@H](O)[C@@H](O)[C@@H](O[C@H]4[C@H](O)[C@@H](O)[C@@H](O[C@H]5[C@H](O)[C@@H](O)[C@@H](O[C@H]6[C@H](O)[C@@H](O)[C@@H](O[C@H]7[C@H](O)[C@@H](O)[C@@H](O[C@H]8[C@H](O)[C@@H](O)[C@@H](O[C@H]1[C@H](O)[C@H]2O)O[C@@H]8COCC(C)O)O[C@@H]7COCC(C)O)O[C@@H]6COCC(C)O)O[C@@H]5COCC(C)O)O[C@@H]4COCC(C)O)O[C@@H]3COCC(C)O (stereo partly drawn) [HPβCD, 2-hydroxypropyl-β-cyclodextrin] | 54.8–57.5 mN/m |  | 
2.1 ± 0.6 | 4 ± 0.67 (≈ 4.97 µM) | < 1 | > 10 | C=CC[C@@H]1/C=C(\C)C[C@H](C)C[C@H](OC)[C@H]2O[C@@](O)(C(=O)C(=O)N3CCCC[C@H]3C(=O)O[C@H](/C(C)=C/[C@@H]3CC[C@@H](O)[C@H](OC)C3)[C@H](C)[C@@H](O)CC1=O)[C@H](C)C[C@@H]2OC [Tacrolimus] |  | 1 to 12 | 100
